What follows are compounds tested on Plasmodium falciparum (assay: GSK_TCMDC: Inhibition of Plasmodium falciparum 3D7 in whole erythrocytes, using parasite LDH activity as an index of growth.). Details: Plasmodium falciparum, 3D7.
Type: functional, organism-based

| Compound | XC50 [nM] |
| --- | --- |
| COc1ccc2nccc(N/N=C/c3ccccc3[N+](=O)[O-])c2c1 | 65.9 |
| CCOc1ccc2nc(C)cc(N/N=C/c3ccccc3[N+](=O)[O-])c2c1 | 29.6 |
| COc1ccc2nc(C)cc(N/N=C/c3ccccc3[N+](=O)[O-])c2c1 | 177 |
| O=C(Nc1cccc(-c2nn3ccccc3c2-c2ccnc(Nc3ccc(Cc4ccncc4)cc3)n2)c1)c1c(F)cccc1F | 296 |
| COc1cc(C(=O)NCCCN2CCN(c3cccc(Cl)c3)CC2)ccc1-c1nc2cc(Cl)c(F)cc2[nH]1 | 1020 |
| COc1cc(C)nc2ccc(NC(=O)c3cc([N+](=O)[O-])cc([N+](=O)[O-])c3)cc12 | 385 |
| Cc1cc(NC(=O)c2ccc(S(=O)(=O)N(Cc3ccccc3)C(C)C)cc2)no1 | 847 |
| CC(C)N1CCN(C(CN2CCN(CCCOc3ccccc3-c3ccccc3)CC2)c2ccc(F)cc2)CC1 (centres undefined) | 789 |
| CN(CC(=O)Nc1cc(C(F)(F)F)ccc1-n1cncn1)Cc1ccc2ccccc2c1 | 232 |
| NCC1CCCN1Cc1cccc(-c2ccc(-c3nc4cc(C(F)(F)F)ccc4[nH]3)s2)c1 (centres undefined) | 748 |
| COc1ccc2c(=NN=Cc3ccc(F)cc3)cc(C)[nH]c2c1 | 773 |
| COC(=O)c1ccc(CC(C)NCC(O)c2cccc(Oc3cccc(C(F)(F)F)c3)c2)cc1 (centres undefined) | 1170 |
| CCC1(C)CC(CCNCc2ccccc2O)(c2ccc(F)cc2)CCO1 (centres undefined) | 880 |
| CC(C)(C)OC(=O)N1CCN(c2ccccc2NC(=O)c2cccc(C(F)(F)F)c2Oc2ccc(F)cc2)CC1 | 857 |
| C(=Cc1nc2ccccc2s1)c1ccc2c(c1)OCCO2 | 393 |
| CCCCN(CCCC)Cc1cc2ccccc2cc1O | 348 |
| CCC1(CC)CN(c2ccccc2)c2ccc(O)cc2S(=O)(=O)C1CC(C)C (centres undefined) | 402 |
| OCc1ccc(-c2cncc(Nc3ccc(F)c(Cl)c3)c2)cc1 | 88.5 |
| O=C(NCC1CCN(Cc2cccc(F)c2)C1)c1cc(-c2cccc(C(F)(F)F)c2)cs1 (centres undefined) | 992 |
| Cc1cccnc1CNc1nccc2c(C)c(C)[nH]c12 | 849 |
| Cc1nnsc1C(=O)Nc1ccc(-c2cccc(-c3nc4cccc(C)c4[nH]3)c2)cc1 | 630 |
| Cc1ccccc1C1CCN(c2ccc(NC(=O)c3ccc(Cl)nc3)cc2)CC1 | 1030 |
| O=C(Nc1ccc(Cl)cc1)c1ccc(CN2CCCN(Cc3ccsc3)CC2)cc1 | 862 |
| CC(C)(C)C1CCc2nc(N)nc(N)c2C1 (centres undefined) | 12.6 |
| CC(=O)Nc1cccc(NC(=O)CSc2ccc(-c3nc4ccccc4[nH]3)cn2)c1 | 559 |

| Compound | XC50 [nM] |
| --- | --- |
| Cc1cccc(CN2CCC(Oc3ccc(NC(=O)c4cccs4)cc3Cl)CC2)n1 | 844 |
| CN(C)c1ccc(/N=C2/N/C(=N/c3ccc(N(C)C)cc3)c3ccccc32)cc1 | 848 |
| CC(Cc1ccc(C2=CCNCC2)cc1)NCC(O)c1cccc(C(F)(F)F)c1 (centres undefined) | 1570 |
| COC(=O)/C=C/c1ccc(CC(C)NCC(O)c2cccc(Br)c2)cc1 (centres undefined) | 725 |
| CCCOc1cc2c(cc1OCCC)C(C=Cc1ccc(Cl)cc1Cl)=NC(C)C2 (centres undefined) | 370 |
| Nc1ccc2nc(C=Cc3ccccc3)[nH]c2c1 | 749 |
| O=C(NCC1CN(Cc2ccc(N3CCCC3)o2)CCCO1)c1ccc2c(c1)OCO2 (centres undefined) | 839 |
| O=C(CCc1c[nH]cn1)Nc1ccc(-c2ccc(-c3nc4ccccc4[nH]3)cc2)cc1 | 705 |
| CC(CON1C(N)=NC(N)=NC1(C)C)Cc1ccc(Cl)cc1Cl (centres undefined) | 3.2 |
| CCc1cn2c3c(cc(C(=O)N[C@@H](Cc4ccccc4)[C@H](O)CNCc4cccc(C)c4)cc13)N(C)S(=O)(=O)CC2 | 246 |
| Cc1ccc(CN(Cc2ccc(C(=O)N(C)C)cc2)Cc2ccc3c(c2)OCCO3)cc1C | 804 |
| Cc1cccn2c(=O)c3cc(C(=O)NC(C)c4ccccc4)c(=N)n(CCc4ccccc4)c3nc12 (centres undefined) | 554 |
| CN(C)CCNCc1cccc(-c2ccc3c(Nc4ccc(Oc5ccccc5)cc4)ccnc3c2)c1 | 441 |
| O=C(Nc1cccc(CN2CCN(C(=O)c3cccs3)CC2)c1)c1cccs1 | 782 |
| COc1ccc(N2CCN(CCCCNC(=O)c3ccc(NC(=O)c4ccc(Cl)c(Cl)c4)cc3)CC2)c(OC)c1 | 212 |
| O=C(CNC1=NCCN1)Nc1ccc(NC(=O)Nc2ccc(NC(=O)CNC3=NCCN3)cc2)cc1 | 781 |
| OC(CNC1CCCCCCC1)c1ccc(Cl)c(Cl)c1 (centres undefined) | 205 |
| CCN(CCCN1CCCCC1)c1cc(C)nc(Nc2ccc(C)c(Br)c2)n1 | 248 |
| O=C(Nc1ccccc1Cl)N(Cc1cc(Cl)cc(Cl)c1)CC(O)COc1ccc(Cl)c(F)c1 (centres undefined) | 788 |
| O=[N+]([O-])c1cccc(CNC2CCN(Cc3ccc4ccccc4c3)CC2)c1 | 764 |
| COc1ccc(N2CCN(CCCCNCc3ccc(NC(=O)c4cc(Cl)cc(Cl)c4)cc3)CC2)c(OC)c1 | 253 |
| Fc1ccc2[nH]c(-c3cccc(-c4ccc(CNCCc5ccncc5)cc4)c3)nc2c1 | 115 |
| CCOc1ccc(-c2nonc2NC(=O)c2ccccc2)cc1OCC | 257 |
| c1ccc(Oc2ccc(Nc3ccnc(Nc4ccc(OCCN5CCCCC5)cc4)n3)cc2)cc1 | 604 |
| COc1ccc(-c2c(-c3ccc(OCc4ccccc4)cc3O)n[nH]c2C(F)(F)F)cc1 | 1170 |

| Compound | XC50 [nM] |
| --- | --- |
| OC1CCCN(Cc2ccc(-c3ccc(-c4nc5ccccc5[nH]4)cc3)cc2)C1 (centres undefined) | 838 |
| O=C(Nc1cc(C(F)(F)F)ccc1N1CCOCC1)C(Cl)(Cl)Cl | 373 |
| Cc1cc(NCCCCCCNc2cc(C)nc3c(C)cccc23)c2cccc(C)c2n1 | 406 |
| Cc1ccc(-c2cc(C(=O)Nc3ccc(S(=O)(=O)N4CCCCC4C)cc3)n[nH]2)c(O)c1 (centres undefined) | 1080 |
| CCOc1cc(C)ccc1C1CCN(CCCCNC(=O)c2cnc(-c3ccc(C(F)(F)F)cc3)[nH]2)CC1 | 771 |
| Cc1cc2c(cc1C(F)(F)F)N(C(=O)Nc1cc(C(=O)NC3CCN(Cc4ccccc4)C3)cc(C(F)(F)F)c1)CC2 (centres undefined) | 339 |
| COc1ccc2ncc(F)c(CCN3CCC(CNC(=O)C(=O)c4c[nH]c5ccccc45)CC3)c2n1 | 389 |
| O=C(Cc1ccccn1)Nc1cccc(-c2cccc(-c3nc4cc(C(F)(F)F)ccc4[nH]3)c2)c1 | 610 |
| C=CCOC(=O)N1CCC(CNCc2ccc(-c3ccc(-c4nc5ccccc5[nH]4)s3)cc2)C1 (centres undefined) | 229 |
| CCCCOC(=O)c1ccc(Nc2cc(C)nc3ccc(OC)cc23)cc1 | 640 |
| CN(C)CCOc1ccc(N2CCN(CCCCNC(=O)c3ccc(/C=C/c4cc(Cl)cc(Cl)c4)cc3)CC2)cc1 | 1000 |
| O=C(Nc1nc(-c2ccccn2)cs1)c1ccc(Br)s1 | 1060 |
| CC(C)c1ccc(CN2CCCCC(NC(=O)c3cc(-c4ccccc4F)cs3)C2)cc1 (centres undefined) | 672 |
| COc1cccc(CCc2cccc(CNC(C)=O)c2)c1 | 1040 |
| O=C(NCc1cccc(OC(F)(F)F)c1)c1cnc2c(c1)nc(-c1c[nH]c(-c3ccccc3)n1)n2CCc1c[nH]cn1 | 683 |
| N#Cc1ccc(N/C(=N\c2ccc(-c3ccccc3)cc2)NC2CCCc3ccccc32)c(O)c1 (centres undefined) | 776 |
| COc1ccc(C(=O)C2CC2CN(C)CCC(O)c2ccc(Cl)c(Cl)c2)cc1 (centres undefined) | 873 |
| Cc1nc(N)nc(N)c1OCCCOc1cccc(Cl)c1Cl | 2.56 |
| CN(c1ccccc1)S(=O)(=O)c1cccc(NC(=O)c2ccc(-n3ccnc3)c([N+](=O)[O-])c2)c1 | 1130 |
| Cc1ccc2nc(Cl)c3cc(C(=O)NCCCN4CCCC4)sc3c2c1 | 1140 |
| Cc1ccc(CN2CCN(Cc3cccc(NC(=O)c4cccs4)c3)CC2)cc1C | 1030 |
| Cc1cc(N[C@@H](Cc2ccccc2)C(=O)NCc2cccc(F)c2)nc(NCCCOC(C)C)n1 | 920 |
| CCNc1cc(C(=O)N[C@@H](Cc2ccccc2)[C@H](O)CNC2(CCC(C)C)CC2)cc(N2CCCCS2(=O)=O)c1 | 1080 |
| COc1cc(NCCCNCc2cn(S(=O)(=O)c3ccccc3)c3ccccc23)nc2ccccc12 | 386 |
| CCN(CC)CCn1c2ccccc2c2ccc(C(=O)Nc3ccc4sc(C)nc4c3)cc21 | 1060 |

| Compound | XC50 [nM] |
| --- | --- |
| C=C(C)Cn1cc(C2CCN(CCCCNC(=O)c3sc(-c4ccc(Cl)cc4Cl)nc3CO)CC2)c2ccccc21 | 1150 |
| CN(C)CCOc1cc(NC(=O)Nc2ccc(Oc3ccccc3)cc2)ccc1I | 890 |
| Cc1ccc(Nc2ccnc(Nc3ccc(F)c(Cl)c3)n2)cc1O | 733 |
| CC(Oc1c(C2CCN(CCCCNC(=O)c3ccc(-c4ccc(Cl)cc4)cc3)CC2)ccc2c1CCCC2)C(N)=O (centres undefined) | 948 |
| O=C(/C=C/c1ccc(Cl)c(Cl)c1)NCCCCCN1CCCC(CNS(=O)(=O)c2cccc(C(F)(F)F)c2)C1 (centres undefined) | 950 |
| CC(=O)N(Cc1cccc(-c2ccc(CNCCc3ccccc3)cc2)c1)C1CCN(Cc2ccccc2)CC1 | 691 |
| CCCN(CCC)C(=S)N/N=C1/C(=O)Nc2ccccc21 | 815 |
| N#CN1CC[C@@H](NS(=O)(=O)Cc2ccc(Cl)c(Cl)c2)C1 | 532 |
| O=C(Nc1cccc(-c2cccc(-c3nc4cc(C(F)(F)F)ccc4[nH]3)c2)c1)c1ccoc1 | 277 |
| O=C1OC2(CN1CC1CCN(Cc3ccc(O)c(Cl)c3)CC1)c1ccccc1-c1ccccc12 | 756 |
| CCOc1cc2ncnc(Nc3ccc(OCc4ccccc4Br)c(OC)c3)c2cc1OCC | 467 |
| CNCc1ccc2nc(-c3coc(Cc4cc(Cl)ccc4OCC(C)C)n3)[nH]c2c1 | 838 |
| CCN(c1ccccc1)S(=O)(=O)c1ccc(OC)c(NC(=O)c2cccc(C(F)(F)F)c2)c1 | 881 |
| COc1ccc(CCNCCCCCCNCCCc2ccc(Cl)cc2)cc1OC | 951 |
| CC(C)C[C@@H](/C=N/N1CCNC1=O)NC(=O)[C@H](CC(C)C)NC(=O)c1ccc(OCCN2CCOCC2)cc1 | 190 |
| CC(=O)c1cccc(NC(=O)C2c3ccccc3C(=O)N(CC(C)C)C2c2cccs2)c1 (centres undefined) | 590 |
| O=[N+]([O-])c1cccc(-n2nc(NCc3ccc(Cl)cc3)nc2-c2ccc(F)c(C(F)(F)F)c2)c1 | 243 |
| Cc1cc(C(=O)NC2CCN(CC3(c4ccccc4)CCCCC3)CC2)on1 | 258 |
| Cc1cc(N[C@@H](CC(C)C)C(=O)Nc2ccccc2)nc(NCCc2ccc(F)cc2)n1 | 1090 |
| Cc1cc2c(NC(=O)NC3CCN(CCc4ccccc4Cl)CC3)cccc2cn1 | 387 |
| Cc1[nH]c(C)c(-c2ccc(-c3ccc(C#N)cc3)nc2)c(=O)c1Br | 981 |
| O=C(NCc1ccc(C(=O)NC2CCCCC2)cc1)c1ccc(O)c(-c2ccc(Cl)c(Cl)c2)c1 | 875 |
| CC(C)(C)c1ccc(CN2CCCCC(NC(=O)c3cc(-c4ccccc4F)cs3)C2)cc1 (centres undefined) | 267 |
| O=C(CC(=O)Nc1cc(Cl)cc(Cl)c1)Nc1cc(Cl)cc(Cl)c1 | 159 |
